Data: US20120129843A1, “PYRIDYL-THIAZOLYL INHIBITORS OF PRO-MATRIX METALLOPROTEINASE ACTIVATION” (priority 2010, published 2012)
Counter-ions that a name gives are not always drawn.

How the values were obtained:
[1] = molecular target: T1, proMMP9(20-445;ΔFnII) (SEQ ID NO:6) (Homo sapiens, UniProt P14780, DEL216-390); assay: ThermoFluor binding assay with proMMP9(20-445;ΔFnII)
T1 construct: start methionine (N); made in house; host or cells: E. coli BL21(DE3) RIL
T1 sequence (P14780 with tags, fused parts or gaps DEL216-390): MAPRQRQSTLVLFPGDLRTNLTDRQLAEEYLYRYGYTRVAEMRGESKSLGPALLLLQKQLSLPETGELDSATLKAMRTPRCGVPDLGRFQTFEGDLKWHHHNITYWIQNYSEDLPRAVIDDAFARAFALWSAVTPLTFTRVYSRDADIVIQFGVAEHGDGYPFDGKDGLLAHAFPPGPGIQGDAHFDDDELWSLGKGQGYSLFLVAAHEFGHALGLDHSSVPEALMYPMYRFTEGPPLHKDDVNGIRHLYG
Description: The ThermoFluor® (TF) assay is a 384-well plate-based binding assay that measures thermal stability of proteins (Biomol Screen 2001, 6, 429-40; Biochemistry 2005, 44, 5258-66). The experiments were carried out using instruments available from Johnson & Johnson Pharmaceutical Research & Development, LLC. TF dye used in all experiments was […] (1,8-ANS) (Invitrogen: A-47).
Compounds were arranged in a pre-dispensed plate (Greiner Bio-one: 781280), wherein compounds were serially diluted in 100% DMSO across 11 columns within a series. Columns 12 and 24 were used as DMSO reference and contained no compound. For multiple compound concentration-response experiments, the compound aliquots ([…]) were robotically predispensed directly into black 384-well polypropylene PCR microplates (Abgene: TF-0384/k) using a Cartesian Hummingbird liquid handler (DigiLab, Holliston, Mass.). Following compound dispense, protein and dye solutions were added to achieve the final assay volume of 3 μL. The assay solutions were overlayed with 1 μL of silicone oil (Fluka, type DC 200: 85411) to prevent evaporation.
Assay plates were robotically loaded onto a thermostatically controlled PCR-type thermal block and then heated from 40 to 90° C. at a ramp-rate of 1° C./min for all experiments. Fluorescence was measured by continuous illumination with UV light (Hamamatsu LC6) supplied via fiber optics and filtered through a band-pass filter (380-400 nm; >60D cutoff). Fluorescence emission of the entire 384-well plate was detected by measuring light intensity using a CCD camera (Sensys, Roper Scientific) filtered to detect 500±25 nm, resulting in simultaneous and independent readings of all 384 wells. A single image with 20-sec exposure time was collected at each temperature, and the sum of the pixel intensity in a given area of the assay plate was recorded vs temperature and fit to standard equations to yield the Tm (J Biomol Screen 2001, 6, 429-40).
Thermodynamic parameters necessary for fitting compound binding for each proMMP were estimated by differential scanning calorimetry (DSC) and from ThermoFluor® data. The heat capacity of unfolding for each protein was estimated from the molecular weight and from ThermoFluor® dosing data.
ThermoFluor® with proMMP9(20-445;ΔFnII) (SEQ ID NO:6)
The protein sample preparations included a desalting buffer exchange step via a PD-10 gravity column (GE Healthcare). The desalting buffer exchange was performed prior to diluting the protein to the final assay concentration of 2.8 μM proMMP9(20-445;ΔFnII) (SEQ ID NO:6). The concentration of proMMP9(20-445;ΔFnII) (SEQ ID NO:6) was determined spectrophotometrically based on a calculated extinction coefficient of ε280=39880 M^−1cm^−1, a calculated molecular weight of 28.2 kDa, and calculated pI of 5.5. ThermoFluor® reference conditions were define as follows: 80 μg/mL (2.8 μM) proMMP9(20-445;ΔFnII) (SEQ ID NO:6), 50 μM 1,8-ANS, pH 7.0 Buffer (50 mM HEPES pH 7.0, 100 mM NaCl, 0.001% Tween-20, 2.5 mM MgCl2, 300 μM CaCl2). The thermodynamic parameters for proMMP9(20-445;ΔFnII) (SEQ ID NO:6) are as follows: Tm (° C.)=72 (+/−0.1), ΔUH(Tm) (cal mol^−1)=160000(+/−5000), ΔUS(Tm) (cal mol^−1 K^−1)=434, ΔUCp (cal mol^−1 K^−1)=2400.

[2] = molecular target: T2, full-length proMMP9(1-707) (SEQ ID NO:1), activation by catalytic MMP3 (Homo sapiens, UniProt P14780, R574P); assay: proMMP9/MMP3 P126 Activation Assay; assay type: biochemical
T2 construct: made in house; host or cells: HEK293 (proMMP9, secreted); E. coli (MMP3)
Description: proMMP9/MMP3 P126 Activation Assay
The reaction volume was 50 μL. […] Reactivity of residual MMP3 towards P-126 substrate was minimal under these conditions.

T2 sequence (P14780 20-707 R574P): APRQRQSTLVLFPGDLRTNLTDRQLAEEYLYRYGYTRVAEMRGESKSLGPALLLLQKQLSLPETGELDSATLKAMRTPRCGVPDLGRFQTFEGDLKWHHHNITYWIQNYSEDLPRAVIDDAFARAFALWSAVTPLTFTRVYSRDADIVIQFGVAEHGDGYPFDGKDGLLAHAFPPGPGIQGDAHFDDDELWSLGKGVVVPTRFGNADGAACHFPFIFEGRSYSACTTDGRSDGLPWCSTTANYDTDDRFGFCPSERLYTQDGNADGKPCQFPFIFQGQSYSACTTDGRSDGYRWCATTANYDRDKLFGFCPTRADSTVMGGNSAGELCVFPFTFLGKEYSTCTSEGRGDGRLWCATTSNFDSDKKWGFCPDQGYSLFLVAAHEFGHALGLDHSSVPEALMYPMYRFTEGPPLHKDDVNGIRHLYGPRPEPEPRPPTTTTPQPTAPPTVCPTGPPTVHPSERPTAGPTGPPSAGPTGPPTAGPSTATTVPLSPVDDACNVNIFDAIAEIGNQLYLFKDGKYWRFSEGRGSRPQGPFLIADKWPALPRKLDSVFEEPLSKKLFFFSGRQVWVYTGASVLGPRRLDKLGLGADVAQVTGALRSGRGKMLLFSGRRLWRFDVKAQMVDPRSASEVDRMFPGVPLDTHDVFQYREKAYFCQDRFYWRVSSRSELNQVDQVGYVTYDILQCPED

Row | SMILES | Kd [1] [nM] | IC50 [2] [nM]
1 | CCN1CCC(NC(=O)c2ccc(-c3csc(Nc4cc(S(N)(=O)=O)ccc4OC(C)C)n3)cn2)CC1 [Example 57, 5-[2-(2-Isopropoxy-5-sulfamoyl-phenylamino)-thiazol-4-yl]-pyridine-2-carboxylic acid (1-ethyl-piperidin-4-yl)-amide.TFA] | 110 | 240
2 | CC(C)Oc1ccc(S(N)(=O)=O)cc1Nc1nc(-c2ccc(N3CCN(C4CC4)CC3)nc2)cs1 [Example 61, 3-((4-(6-(4-Cyclopropylpiperazin-1-yl)pyridin-3-yl)thiazol-2-yl)amino)-4-isopropoxybenzenesulfonamide.TFA] | – | 300
3 | CC(=O)N1CCN(c2ccc(-c3csc(Nc4cc(S(N)(=O)=O)ccc4OC(C)C)n3)cn2)CC1 [Example 65, 3-((4-(6-(4-Acetylpiperazin-1-yl)pyridin-3-yl)thiazol-2-yl)amino)-4-isopropoxybenzenesulfonamide.TFA] | 69 | 210
4 | CC(C)Oc1ccc(S(N)(=O)=O)cc1Nc1nc(-c2ccc(N3CCN(CCC(F)(F)F)CC3)nc2)cs1 [Example 66, 4-Isopropoxy-3-((4-(6-(4-(3,3,3-trifluoropropyl)piperazin-1-yl)pyridin-3-yl)thiazol-2-yl)amino)benzenesulfonamide.TFA] | 310 | > 20000
5 | CC1CN(c2ccc(-c3csc(Nc4cc(S(N)(=O)=O)ccc4OC(C)C)n3)cn2)CC(C)N1 (centres unmarked) [Example 67, 3-((4-(6-(3,5-Dimethylpiperazin-1-yl)pyridin-3-yl)thiazol-2-yl)amino)-4-isopropoxybenzenesulfonamide.TFA] | 71 | 130
6 | CC(C)Oc1ccc(S(N)(=O)=O)cc1Nc1nc(-c2ccc(N3C[C@@H](C)N[C@@H](C)C3)nc2)cs1 [Example 68, 3-((4-(6-(cis-3,5-Dimethylpiperazin-1-yl)pyridin-3-yl)thiazol-2-yl)amino)-4-isopropoxybenzenesulfonamide.TFA] | 71 | 130
7 | CC(C)Oc1ccc(S(N)(=O)=O)cc1Nc1nc(-c2ccc(N3CCNC(C)(C)C3)nc2)cs1 [Example 69, 3-((4-(6-(3,3-Dimethylpiperazin-1-yl)pyridin-3-yl)thiazol-2-yl)amino)-4-isopropoxybenzenesulfonamide.TFA] | 65 | 100
8 | CC(C)Oc1ccc(S(N)(=O)=O)cc1Nc1nc(-c2ccc(N3CCC(O)CC3)nc2)cs1 [Example 70, 3-((4-(6-(4-Hydroxypiperidin-1-yl)pyridin-3-yl)thiazol-2-yl)amino)-4-isopropoxybenzenesulfonamide.TFA] | 250 | 340
9 | CC(C)Oc1ccc(S(N)(=O)=O)cc1Nc1nc(-c2ccc(N3CCN(CC4CC4)CC3)nc2)cs1 [Example 71, 3-((4-(6-(4-(Cyclopropylmethyl)piperazin-1-yl)pyridin-3-yl)thiazol-2-yl)amino)-4-isopropoxybenzenesulfonamide.TFA] | 75 | 170
10 | CC(C)Oc1ccc(S(N)(=O)=O)cc1Nc1nc(-c2ccc(C3=CCNCC3)nc2)cs1 [Example 72, 4-Isopropoxy-3-((4-(1′,2′,3′,6′-tetrahydro-[2,4′-bipyridin]-5-yl)thiazol-2-yl)amino)benzenesulfonamide.TFA] | 110 | 140
11 | CC(C)Oc1ccc(S(N)(=O)=O)cc1Nc1nc(-c2ccc(N3CCNC(C(N)=O)C3)nc2)cs1 (centres unmarked) [Example 73, 4-(5-(2-((2-Isopropoxy-5-sulfamoylphenyl)amino)thiazol-4-yl)pyridin-2-yl)piperazine-2-carboxamide.TFA] | 120 | 210
12 | COCCN(C)c1ccc(-c2csc(Nc3cc(S(N)(=O)=O)ccc3OC(C)C)n2)cn1 [Example 74, 4-Isopropoxy-3-((4-(6-((2-methoxyethyl)(methyl)amino)pyridin-3-yl)thiazol-2-yl)amino)benzenesulfonamide.TFA] | 170 | 160
13 | CC(C)Oc1ccc(S(N)(=O)=O)cc1Nc1nc(-c2ccc(N(C)CCO)nc2)cs1 [Example 75, 3-((4-(6-((2-Hydroxyethyl)(methyl)amino)pyridin-3-yl)thiazol-2-yl)amino)-4-isopropoxybenzenesulfonamide.TFA] | 280 | 110
14 | CC(C)Oc1ccc(S(N)(=O)=O)cc1Nc1nc(-c2ccc(N3CCCCC3)nc2)cs1 [Example 76, 4-Isopropoxy-3-((4-(6-(piperidin-1-yl)pyridin-3-yl)thiazol-2-yl)amino)benzenesulfonamide.TFA] | 240 | > 20000
15 | CC1CCN(c2ccc(-c3csc(Nc4cc(S(N)(=O)=O)ccc4OC(C)C)n3)cn2)CC1 [Example 77, 4-Isopropoxy-3-((4-(6-(4-methylpiperidin-1-yl)pyridin-3-yl)thiazol-2-yl)amino)benzenesulfonamide.TFA] | 1900 | > 20000
16 | COC1CCN(c2ccc(-c3csc(Nc4cc(S(N)(=O)=O)ccc4OC(C)C)n3)cn2)CC1 [Example 78, 4-Isopropoxy-3-((4-(6-(4-methoxypiperidin-1-yl)pyridin-3-yl)thiazol-2-yl)amino)benzenesulfonamide.TFA] | 340 | ~300
17 | CC(C)Oc1ccc(S(N)(=O)=O)cc1Nc1nc(-c2ccc(N3CCC(CO)CC3)nc2)cs1 [Example 79, 3-((4-(6-(4-(Hydroxymethyl)piperidin-1-yl)pyridin-3-yl)thiazol-2-yl)amino)-4-isopropoxybenzenesulfonamide.TFA] | 150 | 340
18 | CC(C)Oc1ccc(S(N)(=O)=O)cc1Nc1nc(-c2ccc(N3CCNC(C(F)(F)F)C3)nc2)cs1 (centres unmarked) [Example 80, 4-Isopropoxy-3-((4-(6-(3-(trifluoromethyl)piperazin-1-yl)pyridin-3-yl)thiazol-2-yl)amino)benzenesulfonamide.TFA] | 150 | 360
19 | CC(C)Oc1ccc(S(N)(=O)=O)cc1Nc1nc(-c2ccc(C3CCNCC3)nc2)cs1 [Example 81, 4-Isopropoxy-3-((4-(6-(piperidin-4-yl)pyridin-3-yl)thiazol-2-yl)amino)benzenesulfonamide.TFA] | 130 | 130
20 | CC(C)Oc1ccc(S(N)(=O)=O)cc1Nc1nc(-c2ccc(N3CCn4ccnc4C3)nc2)cs1 [Example 82, 3-((4-(6-(5,6-Dihydroimidazo[1,2-a]pyrazin-7(8H)-yl)pyridin-3-yl)thiazol-2-yl)amino)-4-isopropoxybenzenesulfonamide.TFA] | 99 | 370
21 | CC(C)Oc1ccc(S(N)(=O)=O)cc1Nc1nc(-c2ccc(C(=O)NCC3CCN(C)CC3)nc2)cs1 [Example 95, 5-(2-((2-Isopropoxy-5-sulfamoylphenyl)amino)thiazol-4-yl)-N-((1-methylpiperidin-4-yl)methyl)picolinamide.TFA] | – | 310
22 | CC(C)Oc1ccc(S(N)(=O)=O)cc1Nc1nc(-c2ccnc(Cl)c2)cs1 [Intermediate 9, 3-[4-(2-Chloro-pyridin-4-yl)-thiazol-2-ylamino]-4-isopropoxy-benzenesulfonamide.TFA] | 96000 | –
